Results: paper PMC11357992, “Non-invasive mapping of systemic neutrophil dynamics upon cardiovascular injury” (Nature Cardiovascular Research, 2023)
“And” between values parts separate entries of the source, which are not always exact repeats. Equal entries are not always repeated. Where no end group is shown, it is not given here. Side-chain parts run from the residue outwards. rhodamine‑labelled PEGylated perfluoro‑15‑crown‑5 ether nanoemulsion = not defined here; carboxyfluorescein = N-terminal fluorescence label (CF)

Tests used:
[1] = tested on: human neutrophils; assay: ROS release of human neutrophils; assay type: cell-based; details: for ROS release of human neutrophils, raw data (panel C): single samples #1-#3
Experimental: A total of 5 × 10^6 human neutrophils were incubated in 10 ml DMEM with or without 1 µg ml^−1 peptide or 50 µl ml^−1 emulsion. At distinct time points, cells were pelleted, and 1 ml of the supernatant was immediately frozen at −80 °C. Subsequently, the amount of ROS was determined by chemiluminescence analysis. […] After centrifugation, 80 µl supernatant was used to determine ROS by UPLC measurement (Waters Acquity Bio H-Class with 2475 FLD Detector). To this end, gradients A and B (0.1% trifluoroacetic acid in 1 l water and acetonitrile, respectively) at a flow rate of 0.26 ml min^−1 at 17 °C were used. Dihydroethidium was excited and detected at 480 nm and 580 nm, respectively.

[2] = tested on: human neutrophils; assay: Cell surface activation markers CD11b, CD63, CD66b on human neutrophils; assay type: cell-based; details: 50 µl ml^−1 hNPPFCs or 1 µg ml^−1 LPS, 1 h, 37 °C
Experimental: (§1) A total of 1 × 10^6 isolated human neutrophils were incubated with 50 µl ml^−1 ^hNPPFCs, 1 µg ml^−1 LPS or only DMEM for 1 h at 37 °C followed by intense washing with MACS buffer. Afterward, 1 × 10^5 cells were transferred into 96-well plates and stained for CD11b and CD63 (eBioscience, clone HSC6) or CD66b (eBioscience, clone G10F5) for 20 min at 4 °C. After two washing steps with MACS buffer, cells were analyzed by flow cytometry. A total of 1 × 10^5 isolated murine neutrophils were transferred into a 96-well plate and stained for CD11b, CD62L and CD63 for 20 min at 4 °C. After two washing steps with MACS buffer, cells were analyzed by flow cytometry.

[3] = tested on: human neutrophils; assay: 1H/19F MRI of human neutrophils incubated with hNPPFCs/ConPFCs (healthy and STEMI); assay type: cell-based; details: versus ConPFC controls
Experimental: After the incubation period, cells were subjected to density gradient centrifugation to separate PFC-loaded cells from free PFCs. Afterward, samples were analyzed by MRI to determine the ^19F signal within the cell layer as described previously.
To determine PFC uptake by human neutrophils by ^19F MRI, cells were isolated from 10 ml of whole blood by density centrifugation. Subsequently, neutrophils (5 × 10^6) were resuspended in 3 ml DMEM and incubated for up to 8 h at 37 °C under constant motion with 10 µl ^hNPPFCs. Afterward, cells were centrifuged at 350g, washed three times with PBS, resuspended in 1 ml MACS buffer, purified by Percoll gradient centrifugation and analyzed by ^1H/^19F MRI.

[4] = tested on: murine neutrophils; assay: Cell surface activation markers CD11b, CD62L, CD63 on murine blood neutrophils; assay type: in vivo, mouse; details: mNPPFCs 1 mM per kg BW i.v., blood 2 h later; LPS = LPS-doped Matrigel s.c. 24 h before (positive control); individual experiments, only first lines of sheet shown
Experimental: […] per kg BW ^mNPPFCs or saline were injected i.v., and, 2 h later, neutrophils were isolated from the blood and stained for CD11b, CD62L and CD63. As a positive control, mice were implanted with LPS-doped Matrigel 24 h before blood withdrawal.
as §1
Extended Data Fig. 9 Impact of ^mNPPFCs on murine neutrophils. a, Differentially expressed genes (DEGs) identified by bulk RNA sequencing of murine blood neutrophils after intravenous injection of ^mNPPFCs, ^ConPFCs or NaCl (Ctrl) as control. […] In total 25655 RNA transcripts were analyzed. b, Cell surface expression of CD11b, CD62L, CD63 on blood derived murine neutrophils after intravenous application of NaCl (Ctrl) or ^mNPPFCs. As a positive control, matrigel doped with 50 µg LPS was subcutaneously implanted into the neck of mice and after 24 h, neutrophils were isolated from the blood and analyzed by flow cytometry. c, Impact of ^mNPPFC incubation on neutrophil migration, phagocytosis and release of reactive oxygen species (ROS). Migration was determined in vivo by assessment of the infiltration of neutrophils into a matrigel/LPS plug; phagocytosis was determined by intravenous injection of FITC-labelled E.coli into mice and the subsequent removal and flow cytometric analysis of blood neutrophils; extracellular ROS were measured within the cell supernatant of blood neutrophils by oxidation of DHE (dihydroethidium) followed by UPLC analysis. […]

[5] = tested on: murine neutrophils; assay: 19F MRI of isolated murine neutrophils incubated with mNPPFCs/ConPFCs; assay type: cell-based, mouse; details: 4 × 10^6 bone marrow neutrophils incubated 3 h at 37 °C with 50 µl PFCs; individual experiments
Experimental: A total of 4 × 10^6 neutrophils isolated from bone marrow with the EasySep Mouse Neutrophil Enrichment Kit (Stemcell Technologies) were resuspended in 1 ml DMEM and incubated for 3 h with 50 µl ^mNPPFCs or ^ConPFCs at 37 °C. Afterward, cells were washed three times with PBS, fixed with PFA, pelleted by centrifugation and analyzed by ^1H/^19F MRI.
Extended Data Fig. 2 Specific targeting of neutrophils by ^mNPPFCs. a, Flow cytometric analysis of murine blood leukocytes incubated with ^mNPPFCs over 80 min illustrating their predominant uptake by neutrophils (red) as compared to monocytes (blue) and lymphocytes (gray). b, To further validate specificity, binding of CD177 mAb as well as incorporation of ^mNPPFCs under basal and LPS-stimulated conditions were determined. Almost no binding/uptake into classical or non-classical monocytes as well as macrophages or eosinophils could be detected. […] Subsequently, cells were analyzed by ^1H/^19F MRI. Left: ^1H/^19F MRI of centrifugation tubes with neutrophils treated with ^mNPPFCs (lower panel) or ^ConPFCs (upper panel). […] Quantification of ^19F signals (4th column) clearly indicate substantial stronger ^19F uptake in ^mNPPFC-treated neutrophils (red) compared to cells incubated with ^ConPFCs (gray); a.u. = arbitrary units. […]

Row | Substance | impact on human neutrophil ROS release ([1]; 1 µg ml^−1 peptide or 50 µl ml^−1 emulsion) | ROS release of human neutrophils, raw data (panel C) ([1]; time point 1) | ROS release of human neutrophils, raw data (panel C) ([1]; time point 3) | ROS release of human neutrophils, raw data (panel C) ([1]; time point 6) | ROS release of human neutrophils, raw data (panel C) ([1]; time point 24) | expression of CD11b, CD63 and CD66b on human neutrophils [2] | 19F signal of human neutrophils exposed to PFCs (1H/19F MRI) [3] | cell surface expression of CD11b on blood derived murine neutrophils, flow cytometry [4] | cell surface expression of CD62L on blood derived murine neutrophils, flow cytometry [4] | cell surface expression of CD63 on blood derived murine neutrophils, flow cytometry [4] | 19F signal of neutrophil cell pellet (19F MRI) [5]
1 | hNPPFCs: PEGylated rhodamine-labeled perfluorocarbon nanoemulsion coupled with human neutrophil-specific peptide hNP (carboxyfluorescein-DLVTSKLQVGGGC; also: C-terminal Cys coupled via maleimide-PEG2000-DSPE to rhodamine-labelled perfluorocarbon nanoemulsion) | neither ^hNPPFCs nor the free peptide had any impact on human neutrophil ROS release | 1725.82 and 1480.41 and 1396.67 | 1373.8 and 1515.29 and 1254.87 | 2382.05 and 1474.31 and 1302.37 | 1643.61 and 1455.28 | did not affect expression of these proteins | significantly stronger |  |  |  | 
2 | mNPPFCs: PEGylated rhodamine-labeled perfluoro-15-crown-5 ether nanoemulsion (maleimide PFCs) coupled with murine neutrophil-specific peptide mNP (carboxyfluorescein-DFYKPMPNLRITGGGC([maleimide‑PEG2000‑DSPE-rhodamine‑labelled PEGylated perfluoro‑15‑crown‑5 ether nanoemulsion]); reading uncertain; also: printed as DFYKPMPNLRIT-GGG-C) |  |  |  |  |  |  |  | 2655 and 2691 and 3361 and 1842 | 1971 and 1966 and 1558 and 2425 | 135 and 126 and 105 | 349357 a.u. and 181876 a.u. and 297311 a.u. and 383564 a.u. and 306579 a.u.
